In BindingDB's records for doi:10.1016/s0960-894x(98)00617-9 (Scripps Research Institute, 1999):

How the values were obtained:
[1] = Compound was tested for inhibitory activity against alpha-Fucosidase obtained from Bovine kidney
[2] = Compound was tested for inhibitory activity against alpha-Fucosidase obtained from Bovine epididymis
[3] = Compound was tested for inhibitory activity against alpha-1,2-Fucosidase obtained from Arthrobacter oxidans F1

Structure (SMILES)	IC50 [1]	IC50 [2]	IC50 [3]
CC1NC(CO)(CNC(=O)CN)C(O)C(O)C1O (centres undefined) [2-Amino-N-(3,4,5-trihydroxy-2-hydroxymethyl-6-methyl-piperidin-2-ylmethyl)-acetamide]	50 nM	170 nM	116 nM
CC1NC(C#N)(CO)C(O)C(O)C1O (centres undefined) [3,4,5-Trihydroxy-2-hydroxymethyl-6-methyl-piperidine-2-carbonitrile]	75 nM	110 nM	122 nM
CC1NC(CN)(CO)C(O)C(O)C1O (centres undefined) [2-Aminomethyl-2-hydroxymethyl-6-methyl-piperidine-3,4,5-triol]	206 nM	160 nM	80 nM
